From PubChem BioAssay AID1963597 (National Center for Advancing Translational Sciences (NCATS), 2024)

system: human liver microsomes, metabolic stability half-life; experiment: NCATS Human Liver Microsomal (HLM) Stability Profiling; conditions: higher = more stable; screened at 1 µM (by protocol)
Procedure, shortened: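 Half-life derived from parent loss over 0–60 min (0, 5, 10, 15, 30, 60 min) at 37 °C. Incubations: 0.5 mg/mL microsomes, 1 µM test article, NADPH regeneration, pH 7.4 phosphate; quenched in acetonitrile containing albendazole, analysed by MS.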

`CCN(CC)CCCCCCNc1cc(OC)cc2c(C)ccnc12` and `CCN(CC)CCOc1ccc2c(c1)C(=O)c1cc(OCCN(CC)CC)ccc1-2` cannot be ordered by half-life: greater than 120 min for the first, greater than 120 min for the second.

Going from `CCCC(CCC)C(=O)Nc1ccn([C@@H]2O[C@H](CO)[C@@H](O)C2(F)F)c(=O)n1` to `Nc1ccn([C@@H]2O[C@H](CO)[C@H](O)C2(F)F)c(=O)n1`, the half-life falls from greater than 120 min to 22.3 min.

`CCN1CCN(C(=O)Cc2ccc(Nc3ncc(F)c(Nc4ccc(C(=O)Nc5ccccc5Cl)cc4)n3)cc2)CC1` and `Cc1nn2c(c1-c1ccccc1Oc1ccccc1)N(Cc1ccc(C(=O)O)cc1)CCC2` are within 1.5-fold of each other in half-life: 4.23 min for the first, 6.19 min for the second.

`Cc1ccc(C(=O)NC2CCN(c3cnn(CC4CC4)c(=O)c3)CC2)cc1C` and `COc1ccc(C(=O)NC2CCN(c3cnn(CC4CC4)c(=O)c3)CC2)c(OC)n1` cannot be ordered by half-life: greater than 120 min for the first, greater than 120 min for the second.

Going from `Cc1ccc2c(c1)C(=O)[C@]1(O)CCN(c3ccccc3)C1=N2` to `O=c1c(-c2ccccc2)c1-c1ccccc1`, the half-life rises from 1.71 min to 3.57 min (2.1-fold).

Going from `Cc1cc2c(F)c(Oc3ncnn4cc(OCC(C)O)c(C)c34)ccc2[nH]1` (stereo not drawn) to `COc1ccc(-c2cn3cccnc3n2)cc1NC(=O)c1cc(C)cc(C)c1`, the half-life falls from greater than 120 min to 20.7 min.

First: COc1ccc(-n2nc(CCC(=O)N(C)O)cc2-c2ccc(Cl)cc2)cc1
Second: COc1ccc(CNC(=O)C2CCCN(c3nnc(C)c4c(C)n(-c5ccc(C)cc5)nc34)C2)cc1 (stereo not drawn)
The half-life of the first is 7.1-fold higher: 39.1 min for the first, 5.53 min for the second.

Going from `Cc1ncc(Cl)cc1NCc1ccc(C(=O)NC(CC2CCCC2)C(=O)NC2CC2)s1` (stereo not drawn) to `CCCCNc1ncc(C(=O)NCc2ccc(-n3ccnc3)cc2)c(NC2CCC(O)CC2)n1` (stereo not drawn), the half-life rises from 6.13 min to 33 min (5.4-fold).

`O[C@@H]1CO[C@H]2[C@@H]1OC[C@@H]2O` and `Nc1ncnc2c1ncn2[C@@H]1O[C@H](CO)[C@@H](O)[C@@H]1O` cannot be ordered by half-life: greater than 120 min for the first, greater than 120 min for the second.

First: COc1ccc(CN(CCN(C)C)c2ncccn2)cc1
Second: Cc1ccc(COC(=O)N2CC[C@@H](CNc3ncccn3)[C@@H](F)C2)cc1
The half-life of the first is 7.4-fold lower: 8.72 min for the first, 64.9 min for the second.

Going from `O=C1c2ccccc2C(=O)C1C(=O)C(c1ccccc1)c1ccccc1` to `CN(C(=O)C(c1ccccc1)c1ccccc1)[C@H](CN1CC[C@H](O)C1)c1ccccc1`, the half-life falls from greater than 120 min to 9.29 min.

Going from `CC(C)c1ccc(-n2ncc3c(=O)n(CC(=O)Nc4cc(F)ccc4Cl)cnc32)cc1` to `COCCn1c(SCC(=O)Nc2ccc(F)c(Cl)c2)nc2c(oc3ccccc32)c1=O`, the half-life falls from 23.9 min to 7.26 min (3.3-fold).

`CC(C)c1ccccc1OC(=O)NCCc1ccc2ccccc2c1` and `CCCCCn1cc(C(=O)Oc2cccc3cccnc23)c2ccccc21` are within 1.5-fold of each other in half-life: 4.54 min for the first, 4.97 min for the second.

Going from `O=C(NCC1CCN(Cc2cccc(Cl)c2)CC1)[C@@H]1CCCN(c2ncnc3c2nc2n3CCCC2)C1` to `S=C(NCc1ccc2c(c1)OCO2)N1CCN(c2ncnc3c2oc2ccccc23)CC1`, the half-life rises from 8.65 min to 18.6 min (2.2-fold).

Going from `CCOC(=O)NNc1nncc2ccccc12` to `Oc1ccccc1-c1nnco1`, the half-life falls from 97.1 min to 43.3 min (2.2-fold).

`CCn1c(-c2nonc2N)nc2c(C#CCO)ncc(OCCCN)c21` and `CCNCc1nc2c(N)nc3ccccc3c2n1CC(C)(C)O` cannot be ordered by half-life: greater than 120 min for the first, greater than 120 min for the second.

`COc1cc(O)cc(O)c1` and `Oc1cccc(O)c1O` cannot be ordered by half-life: greater than 120 min for the first, greater than 120 min for the second.

First: O=Nc1c(-c2c(O)[nH]c3cc(Br)ccc23)[nH]c2ccccc12
Second: COC1CCN(C(=O)c2cc(Cc3n[nH]c(=O)c4ccccc34)ccc2F)CC1
The half-life of the first is 4-fold lower: 19 min for the first, 76.1 min for the second.

Compared with `COC(=O)c1ccc2c(C(=Nc3ccc(N(C)C(=O)CN4CCN(C)CC4)cc3)c3ccccc3)c(O)[nH]c2c1`, `COC(=O)C1=C(C)NC(C)=C(C(=O)O[C@@H]2CCCN(Cc3ccccc3)C2)[C@@H]1c1cccc([N+](=O)[O-])c1` is 25-fold lower in half-life: 49.1 min for the first, 1.93 min for the second.

Going from `CC(C)(C)C1CCC(CC2=C(O)c3ccccc3C(=O)C2=O)CC1` (stereo not drawn) to `CC1=CC(=O)c2ccccc2C1=O`, the half-life falls from greater than 120 min to 11.4 min.

`CCC1=c2cc(OC(=O)N3CCC(N4CCCCC4)CC3)ccc2=NC2=C3C=C4C(COC(=O)[C@]4(O)CC)C(=O)N3CC21` (stereo partly drawn) and `CN(C)[C@@H]1C(=O)C(C(N)=O)=C(O)[C@@]2(O)C(=O)C3=C(O)c4c(O)cccc4C[C@H]3C[C@@H]12` cannot be ordered by half-life: greater than 120 min for the first, greater than 120 min for the second.

Going from `CCOc1cc(=O)n2c(c1C(=O)Nc1ccc(C#N)cc1)CCCC2` to `CCOc1ccc(S(=O)(=O)N2CCCCCC2)c2ccccc12`, the half-life falls from greater than 120 min to 6.52 min.

Compared with `COc1ccc(C(=O)N2CCCC2=O)cc1`, `CC(C)NC(=O)c1ccc(C=O)cc1` is lower in half-life: greater than 120 min for the first, 3.1 min for the second.

Going from `Fc1ccc([C@@H]2CCNC[C@H]2COc2ccc3c(c2)OCO3)cc1` to `Fc1ccc(C2CCNC[C@H]2COc2ccc3c(c2)OCO3)cc1` (stereo partly drawn), the half-life falls from 71.3 min to 28.9 min (2.5-fold).

First: CN1CCN(c2cccc(Nc3nc4c(-c5ccc(S(C)(=O)=O)cc5)cccn4n3)c2)CC1
Second: CC(C)(C)c1ccc(-c2nc3c(N4CCN(Cc5ccc6nccnc6c5)CC4)cccc3[nH]2)cc1
The half-life of the first is higher: greater than 120 min for the first, 20.5 min for the second.

Compared with `CCOc1ccc(-n2c(C(C)N(Cc3cccnc3)C(=O)Cc3ccc(F)c(C(F)(F)F)c3)nc3ncccc3c2=O)cc1` (stereo not drawn), `COc1ccc(Cn2c(SCc3ccc(C(=O)NC4CCCC4)cc3)nc3ccncc32)cc1` is 3-fold higher in half-life: 4.89 min for the first, 14.5 min for the second.

Compared with `Nc1c(Br)cc(Br)cc1CNC1CCC(O)CC1` (stereo not drawn), `C#C[C@]1(O)CC[C@H]2[C@@H]3CCC4=CC(=O)CCC4=C3C=C[C@@]21CC` is 2.9-fold lower in half-life: 110 min for the first, 38.2 min for the second.

Compared with `O=[N+]([O-])c1cn2c(n1)OC[C@@H](OCc1ccc(OC(F)(F)F)cc1)C2`, `O=C(Nc1ccccc1Br)NC1CCN(c2ccc(C(F)(F)F)cn2)C1` (stereo not drawn) is lower in half-life: greater than 120 min for the first, 120 min for the second.

Compared with `COc1cccc(NC(=O)c2oc3ccc(S(=O)(=O)N4CCC5(CC4)OCCO5)cc3c2C)c1`, `Nc1ccc(C(=O)Nc2cccc(-c3nc(N4CCOCC4)c4oc5ncccc5c4n3)c2)cn1` is 4.6-fold higher in half-life: 12.2 min for the first, 56.2 min for the second.

Compared with `C[C@@H]1CCC[C@H](C)N1CCCC(O)(c1ccccc1)c1ccccn1` (stereo partly drawn), `CCCOC(C(=O)OC1CCN(C)CC1)(c1ccccc1)c1ccccc1` is lower in half-life: greater than 120 min for the first, 11.3 min for the second.

First: N#Cc1ccc(C(=O)Nc2ccc(Cl)c(-c3nc4cc(Cl)ccc4o3)c2)c(F)c1
Second: Cn1ncc(Cl)c1-c1cc(C(=O)N[C@H](CN)Cc2ccc(F)c(F)c2)sc1Cl
The half-life of the first is 7.1-fold lower: 15.4 min for the first, 109 min for the second.

First: COc1ccc(-c2ccc3cc(C(=O)O)ccc3c2)cc1C12CC3CC(CC(C3)C1)C2
Second: COc1nccc(-c2c(-c3ccc(F)cc3)ncn2C2CCNCC2)n1
The half-life of the first is lower: 46.1 min for the first, greater than 120 min for the second.

Compared with `Clc1ccc2c(c1)Nc1ccccc1S2`, `Clc1ccc(C(Cn2ccnc2)OCc2ccc(Sc3ccccc3)cc2)c(Cl)c1` (stereo not drawn) is 8.6-fold higher in half-life: 6.28 min for the first, 54.1 min for the second.

`CCCCCC(=O)O[C@]1(C(C)=O)CC[C@H]2[C@@H]3CCC4=CC(=O)CC[C@]4(C)[C@H]3CC[C@@]21C` and `CC(C)(C)CC(=O)OCC(=O)[C@@]1(O)CC[C@H]2[C@@H]3CCC4=CC(=O)C=C[C@]4(C)[C@H]3[C@@H](O)C[C@@]21C` are within 1.5-fold of each other in half-life: 1.86 min for the first, 2.13 min for the second.

`CC(C)(C)NC[C@H](O)COc1cccc2c1CCCC2=O` and `CC(C)(C)NCc1cc(Nc2ccnc3cc(Cl)ccc23)c2c(c1O)CCCC2` cannot be ordered by half-life: greater than 120 min for the first, greater than 120 min for the second.

Going from `CCN1CCN(C(=O)c2cc(-c3ccccc3OC)c3nncn3n2)CC1` to `Fc1ccc2[nH]c(CN3CCN(c4ccccn4)CC3)cc2c1`, the half-life falls from 54.7 min to 14.3 min (3.8-fold).

Compared with `CC1=NOC2(CCN(Cc3ccc(C#N)cc3)C2)C1` (stereo not drawn), `CC1(c2ccccc2)N(Cc2ccccc2)C(=O)OC12CCN(Cc1cccc(C#N)c1)CC2` (stereo not drawn) is lower in half-life: greater than 120 min for the first, 2.04 min for the second.

Going from `COc1ccc(C2c3c(oc4ccc(Cl)cc4c3=O)C(=O)N2CCCN(C)C)cc1OC` (stereo not drawn) to `COc1cc(C(c2c(C)[nH][nH]c2=O)c2c(C)[nH][nH]c2=O)ccc1OC(=O)c1ccccc1F`, the half-life falls from greater than 120 min to 1.83 min.

Compared with `Nc1ccc(S(=O)(=O)Nc2ccccc2)cc1`, `CN(C)S(=O)(=O)c1ccc(S(=O)(=O)N(Cc2ccco2)Cc2ccccc2Cl)cc1` is lower in half-life: greater than 120 min for the first, 3.33 min for the second.

Going from `Clc1cccc(N2CCNCC2)c1` to `CCn1cc(C(=O)O)c(=O)c2cc(F)c(N3CCN[C@@H](C)C3)c(F)c21`, the half-life rises from 39.8 min to 87.7 min (2.2-fold).

Going from `CCCOc1cc(N)ccc1C(=O)OCCN(CC)CC` to `CCN(CC)Cc1ccc(C(=O)N(CCc2ccccc2OC)[C@@H]2CCNC2)cc1`, the half-life rises from 70.3 min to greater than 120 min.

Going from `Cc1nc(C2CCCCC2)c(-c2ccc(S(N)(=O)=O)c(F)c2)o1` to `Fc1ccc(-c2nc(C3CCNCC3)sc2-c2ccnc(NC3CC3)n2)cc1`, the half-life rises from 30.7 min to greater than 120 min.

Compared with `CCCc1nc(C(C)(C)O)c(C(=O)O)n1Cc1ccc(-c2ccccc2-c2nn[nH]n2)cc1`, `COC(=O)c1ccc([C@H]2c3[nH]c4ccccc4c3C[C@H](C(=O)OC)N2C(=O)CCl)cc1` is lower in half-life: greater than 120 min for the first, 8.55 min for the second.

Going from `COc1cc(C(=O)NC(c2ccccc2Cl)c2cc(Cl)c3cccnc3c2O)cc(OC)c1OC` (stereo not drawn) to `CCc1c(O)cc(O)c(C(=O)c2ccc(OCCN3CCOCC3)c(OC)c2)c1CC(=O)N(CCOC)CCOC`, the half-life rises from 25.6 min to 41.4 min (1.6-fold).

First: COc1ccc(C(CN(C)C)C2(O)CCCCC2)cc1 (stereo not drawn)
Second: COc1ccc(-c2cc(=S)ss2)cc1
The half-life of the first is higher: greater than 120 min for the first, 0.73 min for the second.

`C[C@H]1COc2c(C3(N)CC3)c(F)cc3c(=O)c(C(=O)O)cn1c23` and `Cn1c(N2CCCCS2(=O)=O)nc(C(=O)NCc2ccc(F)cc2)c(O)c1=O` cannot be ordered by half-life: greater than 120 min for the first, greater than 120 min for the second.

First: CO/N=C(\C(=O)O)c1csc(NC(=O)CCl)n1
Second: Cc1cccc(C)c1NC(=O)Nc1cccs1
The half-life of the first is 7.1-fold lower: 11.4 min for the first, 80.6 min for the second.

Going from `Cc1nnc(C(C)C)n1C1CC2CCC(C1)N2CCC(NC(=O)C1CCC(F)(F)CC1)c1ccccc1` (stereo not drawn) to `O=C1CC2(CCCC2)CC(=O)N1CCNC[C@H]1COc2ccccc2O1`, the half-life falls from greater than 120 min to 8.26 min.

`CN1CCC(COc2cnc(-c3cccc(Cn4nc(-c5cccc(C#N)c5)ccc4=O)c3)nc2)CC1` and `Cn1c(=O)c(F)c(Nc2ccc(I)cc2F)c2c(=O)n(CC(O)CO)cnc21` (stereo not drawn) cannot be ordered by half-life: greater than 120 min for the first, greater than 120 min for the second.

First: Cc1cn([C@@H]2O[C@H](CO)[C@@H](O)[C@H]2F)c(=O)[nH]c1=O
Second: CC1(C)O[C@H]2CC(=O)OC[C@]23[C@H]2CC[C@@]4(C)[C@H](c5ccoc5)OC(=O)[C@H]5O[C@]54[C@]2(C)C(=O)C[C@@H]13
The half-life of the first is 1.6-fold higher: 22.1 min for the first, 13.4 min for the second.

Compared with `CCOP(=S)(OCC)Oc1ccc2c(C)c(Cl)c(=O)oc2c1`, `COP(=O)(OC)Oc1ccc([N+](=O)[O-])cc1` is 2.6-fold higher in half-life: 5.07 min for the first, 13.3 min for the second.

`Nc1cc(=O)[nH]c(N)n1` gave a half-life of 99.2 min.
